The supplement of paper PMC11061612

Key:
Assay in all cases: Bliss excess, mean over the matrix (fraction); higher = more synergy
[1] = system: CFPAC-1 (Pancreatic Carcinoma)
In short: (§1)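 Bliss excess equals the observed combination effect minus the expected value EA + EB − EA·EB, where EA and EB are the effects of each agent alone. Combination Emax is the second-highest inhibition within the matrix. Inhibition was scaled from CellTiter-Glo 2.0 luminescence, with 0 set by vehicle wells and 1 by blank wells, after 72 hours of two-drug dosing of cells plated in 1536-well plates.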

[2] = system: COR-L23 (Non-Small Cell Lung Carcinoma)
In short: as §1

[3] = system: COR-L95 (Small Cell Lung Carcinoma)
In short: as §1

[4] = system: DMS-273 (Small Cell Lung Carcinoma)
In short: as §1

[5] = system: G-292-Clone-A141B1 (Osteosarcoma)
In short: as §1

[6] = system: HT-29 (Colorectal Carcinoma)
In short: as §1

J82 (Bladder Carcinoma) = system: J82 (Bladder Carcinoma)
In short: as §1

[7] = system: KARPAS-1106P (B-Cell Non-Hodgkin's Lymphoma)
In short: as §1

[8] = system: KM-H2 (Hodgkin's Lymphoma)
In short: as §1

[9] = system: MDA-MB-231 (Breast Carcinoma)
In short: as §1

[10] = system: MFH-ino (Other Solid Carcinomas)
In short: as §1

[11] = system: NCI-H1694 (Small Cell Lung Carcinoma)
In short: as §1

NCI-H2369 (Mesothelioma) = system: NCI-H2369 (Mesothelioma)
In short: as §1

NCI-H2595 (Mesothelioma) = system: NCI-H2595 (Mesothelioma)
In short: as §1

RH-1 (Ewing's Sarcoma) = system: RH-1 (Ewing's Sarcoma)
In short: as §1

[12] = system: SW1088 (Low Grade Glioma)
In short: as §1

[13] = system: SW1990 (Pancreatic Carcinoma)
In short: as §1

[14] = system: SW756 (Cervical Carcinoma)
In short: as §1

[15] = system: SW780 (Bladder Carcinoma)
In short: as §1

[16] = system: TE-5 (Esophageal Squamous Cell Carcinoma)
In short: as §1

Compound	Bliss excess [1]	Bliss excess [2]	Bliss excess [3]	Bliss excess [4]	Bliss excess [5]	Bliss excess [6]	Bliss excess (J82 (Bladder Carcinoma))	Bliss excess [7]	Bliss excess [8]	Bliss excess [9]	Bliss excess [10]	Bliss excess [11]	Bliss excess (NCI-H2369 (Mesothelioma))	Bliss excess (NCI-H2595 (Mesothelioma))	Bliss excess (RH-1 (Ewing's Sarcoma))	Bliss excess [12]	Bliss excess [13]	Bliss excess [14]	Bliss excess [15]	Bliss excess [16]
Cc1c2c(nn1C)CSCc1cc(n(C)n1)CSc1cc(c3ccccc3c1)OCCCc1c(C(=O)O)n(C)c3c-2c(Cl)ccc13 [AZD5991] + Cn1cnc2c(F)c(Nc3ccc(Br)cc3Cl)c(C(=O)NOCCO)cc21 [Selumetinib] (first compound max 1 µM, 7x7, partner max 3 µM)	0.0044	-0.0051	-0.039	-0.0137	-0.0558	-0.006	-0.0073	0.0497	0.0029	0.0135	-0.0311	-0.0048	0.0081	0.0101	-0.0127	-0.0543	-0.0222	-0.0058	0.0631	-0.0146
Cc1cc2ncnn2cc1Nc1ncc2c(n1)n(C1CCOCC1)c(=O)n2C [AZD7648] + CCN(CCO)CCCOc1ccc2c(Nc3cc(CC(=O)Nc4cccc(F)c4)[nH]n3)ncnc2c1 [AZD2811] (first compound max 10 µM, 7x7, partner max 1 µM)	0.0181	-0.023	-0.003	-0.0368	0.0147	0.0227	-0.0488	0.0642	0.0507	0.0014	-0.0094	0.0483	0.0252	0.0183	-0.0385	-0.0312	-0.0199	-0.0209	-0.018	-0.0237
CCN(CCO)CCCOc1ccc2c(Nc3cc(CC(=O)Nc4cccc(F)c4)[nH]n3)ncnc2c1 [AZD2811] + O=C(c1cc(Cc2n[nH]c(=O)c3ccccc23)ccc1F)N1CCN(C(=O)C2CC2)CC1 [Olaparib] (first compound max 1 µM, 7x7, partner max 10 µM)	0.0077	-0.016	-0.0526	-0.0044	0.0252	0.0007	-0.0207	-0.0229	0.0789	-0.0175	-0.0318	0.0406	0.0055	0.0072	-0.0451	-0.0539	-0.0302	-0.0232	0.02	-0.0181
Cc1cc2ncnn2cc1Nc1ncc2c(n1)n(C1CCOCC1)c(=O)n2C [AZD7648] + C[C@@H]1COCCN1C2=NC(=NC(=C2)C3(CC3)[S@](=N)(=O)C)C4=C5C=CNC5=NC=C4 [AZD6738] (first compound max 10 µM, 7x7, partner max 10 µM)	-0.0108	-0.0121	-0.0029	0.0094	0.0274	0.0118	-0.0122	0.0183	0.0227	0.037	-0.0002	0.0194	0.008	-0.0059	-0.0016	0.0289	0.0049	0.0048	0.0476	-0.0093
CN(CCO)CC[C@H](CSc1ccccc1)Nc1ccc(S(=O)(=O)NC(=O)c2ccc(N3CCC([C@@H](O)c4ccccc4-c4ccc(Cl)cc4)CC3)cc2)cc1S(=O)(=O)C(F)(F)F [AZD4320] + C[C@@H](Nc1cc(F)cc(F)c1)c1cc(C(=O)N(C)C)cc2c(=O)cc(N3CCOCC3)oc12 [AZD8186] (first compound max 1 µM, 7x7, partner max 3 µM)	0.0585	-0.0063	0.0256	0.0236	-0.0014	0.0097	-0.0061	0.0758	0.0237	0.0174	-0.0163	0.0454	-0.0251	0.0344	0.0588	0.0357	0.0048	-0.0213	0.0084	-0.0144
CCc1c2c(nc3ccc(O)cc13)-c1cc3c(c(=O)n1C2)COC(=O)[C@]3(O)CC [SN-38] + CN(C)CCCOc1ccc(-c2ccc3ncc4c(c3c2)n(C2CCOCC2)c(=O)n4C)cn1 [AZD0156] (first compound max 0.3 µM, 7x7, partner max 1 µM)	-0.0436	0.014	-0.0989	0.0377	-0.0508	0.0693	-0.0299	-0.0346	0.0794	0.0937	-0.0032	-0.0333	-0.0001	-0.0399	0.0845	0.0324	-0.0091	-0.0273	-0.0475	0.0124
C[C@@H](c1ccc2nccn2c1)n1nnc2ncc(-c3cnn(C)c3)nc21 [Savolitinib] + CC1(C)CCC(CN2CCN(c3ccc(C(=O)NS(=O)(=O)c4ccc(NCC5CCOCC5)c([N+](=O)[O-])c4)c(Oc4cnc5[nH]ccc5c4)c3)CC2)=C(c2ccc(Cl)cc2)C1 [Venetoclax] (first compound max 1 µM, 7x7, partner max 1 µM)	-0.0514	-0.0457	0.0069	-0.0398	-0.0442	-0.0358	-0.0895	-0.0157	0	-0.0599	-0.0657	-0.0286	-0.058	0.006	-0.0321	-0.0115	-0.0219	-0.0923	-0.0671	-0.0557
COc1nnc2ccc(N3CCC(c4ccc(OCCN5CCN(C)C(=O)[C@H]5C)cc4)CC3)nn12 [AZD5153] + Cc1c2c(nn1C)CSCc1cc(n(C)n1)CSc1cc(c3ccccc3c1)OCCCc1c(C(=O)O)n(C)c3c-2c(Cl)ccc13 [AZD5991] (first compound max 1 µM, 7x7, partner max 1 µM)	-0.0208	-0.0296	-0.0167	-0.1	-0.032	-0.0227	0.0439	0.0005	-0.0495	-0.057	-0.0333	0.0992	-0.0499	0.015	0.0034	0.0112	-0.0477	-0.0238	-0.0187	-0.0158
Cn1cnc2c(F)c(Nc3ccc(Br)cc3Cl)c(C(=O)NOCCO)cc21 [Selumetinib] + CCN(CCO)CCCOc1ccc2c(Nc3cc(CC(=O)Nc4cccc(F)c4)[nH]n3)ncnc2c1 [AZD2811] (first compound max 10 µM, 7x7, partner max 1 µM)	-0.0529	0.0428	-0.0075	-0.0144	-0.0367	-0.0042	-0.0611	0.0245	-0.0193	0.0107	-0.045	0.0136	-0.0517	-0.0185	-0.0239	-0.0456	-0.0292	-0.008	-0.0198	-0.0191
COc1cccc(OCCCN)c1-c1cc(Nc2cnc(C#N)cn2)n[nH]1 [Prexasertib] + Cc1cc2ncnn2cc1Nc1ncc2c(n1)n(C1CCOCC1)c(=O)n2C [AZD7648] (first compound max 1 µM, 7x7, partner max 10 µM)	-0.0398	0.0184	-0.102	-0.0121	-0.049	-0.0377	0.0089	-0.0595	-0.023	0.0128	-0.0301	-0.0259	-0.0252	-0.0172	-0.0085	-0.0975	-0.0317	0.0098	0.001	0.0129
COc1nnc2ccc(N3CCC(c4ccc(OCCN5CCN(C)C(=O)[C@H]5C)cc4)CC3)nn12 [AZD5153] + CC1(C)CCC(CN2CCN(c3ccc(C(=O)NS(=O)(=O)c4ccc(NCC5CCOCC5)c([N+](=O)[O-])c4)c(Oc4cnc5[nH]ccc5c4)c3)CC2)=C(c2ccc(Cl)cc2)C1 [Venetoclax] (first compound max 1 µM, 7x7, partner max 1 µM)	-0.0228	-0.0504	0.0382	-0.0627	-0.0571	-0.0288	-0.0672	-0.0308	0.0245	-0.0755	-0.0608	0.0045	-0.0641	0.0185	-0.0391	-0.0439	-0.0448	-0.0461	-0.0071	-0.0087
CN(C)CCCOc1ccc(-c2ccc3ncc4c(c3c2)n(C2CCOCC2)c(=O)n4C)cn1 [AZD0156] + C=CCn1c(=O)c2cnc(Nc3ccc(N4CCN(C)CC4)cc3)nc2n1-c1cccc(C(C)(C)O)n1 [AZD1775] (first compound max 1 µM, partner max 1 µM)	-0.0645	0.0047	-0.107	-0.0142	-0.0538	-0.0411	-0.0194	-0.0384	0.0303	-0.0415	-0.0954	-0.0303	-0.0266	-0.062	0.0329	-0.0738	-0.0358	-0.0386	-0.0311	-0.0388
Cc1c2c(nn1C)CSCc1cc(n(C)n1)CSc1cc(c3ccccc3c1)OCCCc1c(C(=O)O)n(C)c3c-2c(Cl)ccc13 [AZD5991] + Cc1cc2ncnn2cc1Nc1ncc2c(n1)n(C1CCOCC1)c(=O)n2C [AZD7648] (first compound max 1 µM, 7x7, partner max 10 µM)	-0.002	-0.0076	-0.0957	-0.0113	-0.0274	0.0049	-0.0231	-0.0016	0.0203	-0.0397	-0.018	-0.0059	0.0018	0.0034	-0.0036	-0.0665	-0.0398	-0.0367	-0.0193	-0.0257
